Results on five molecules are retold here after patent US5840752A, “Reduction of hair growth” (priority 1996, dated 1998).

The subject of experiment [1] is hair growth of hamster flank organs. In words: Golden Syrian hamster assay (flank organ hair mass). Conditions: topical, thirteen applications; for Hair Mass (mg) ± SEM, Treated: 10 μl once a day; for % Reduction (of hair growth): vs vehicle treated side. The class given is in vivo. The source says:
Male intact Golden Syrian hamsters are considered acceptable models for human beard hair growth in that they display oval shaped flank organs, one on each side, each about 8 mm. in major diameter, which grow thick black and coarse hair similar to human beard hair. These organs produce hair in response to androgens in the hamster. To evaluate the effectiveness of a composition including an inhibitor of a cholesterol synthetic pathway enzyme, the flank organs of each of a group of hamsters are depilated by applying a thioglycolate based chemical depilatory (Surgex) and/or shaved. To one organ of each animal 10 μl. of vehicle alone once a day is applied, while to the other organ of each animal an equal amount of vehicle containing an inhibitor of a cholesterol synthetic pathway enzyme is applied. After thirteen applications (one application per day for five days a week), the flank organs are shaved and the amount of recovered hair (hair mass) from each is weighed. Percent-reduction of hair growth is calculated by subtracting the hair mass (mg) value of the test compound treated side from the hair mass value of the vehicle treated side; the delta value obtained is then divided by the hair mass value of the vehicle treated side, and the resultant number is multiplied by 100.
The above-described assay will be referred to herein as the "Golden Syrian hamster" assay.

The next experiment has as its system HMG CoA reductase. In words: HMGCoA reductase assay in extracts of hair follicles from hamster flank organ. The class given is biochemical. The conditions noted are these: tested at 14 μM, 1 hour incubation.
The mark [2] stands for this setting: dose 10%, Vehicle A (40% acetone, 40% dipropylene glycol, 20% dimethyl sulfoxide).
Where [3] appears, read: dose 10%, Vehicle C (85% dimethyl sulfoxide, 10% benzyl alcohol, 5% NMP).
The mark [4] stands for this setting: dose 5%, Vehicle B (100% dimethyl sulfoxide).
Setting [5] is: dose 5%, Vehicle C (85% dimethyl sulfoxide, 10% benzyl alcohol, 5% NMP).

As for `CC[C@H](C)C(=O)O[C@H]1C[C@@H](C)C=C2C=C[C@H](C)[C@H](CC[C@@H]3C[C@@H](O)CC(=O)O3)[C@H]21` [Lovastatin, 1S-[1S-[1α(R*),3α,7β,8β(2S*,4S*),8αβ]]-1,2,3,7,8,8a-hexahydro-3,7-dimethyl-8-[2-(tetrahydro-4-hydroxy-6-oxo-2H-pyran-2-yl)ethyl]-1-naphthalenyl 2-methylbutanoate], in experiment [1] (setting [2]), the “Hair Mass (mg) ± SEM, Treated” value is 0.81 ± 0.13 mg and the “% Reduction (of hair growth)” value was determined as 63±4%.

In the case of `CC(C)CCC[C@@H](C)[C@H]1CC[C@H]2[C@@H]3C(=O)C=C4C[C@@H](O)CC[C@]4(C)[C@H]3CC[C@]12C` [7-Ketocholesterol, 5-cholesten-3β-Ol-7-one], in experiment [1] (setting [3]), the “Hair Mass (mg) ± SEM, Treated” value is 1.01 ± 0.1 mg and the “% Reduction (of hair growth)” value was 54 ± 7%.

Take `CC[C@H](C)C(=O)O[C@H]1CCC=C2C=C[C@H](C)[C@H](CC[C@@H]3C[C@@H](O)CC(=O)O3)[C@H]21` [Mevastatin, mevastatin]: in experiment [1] (setting [4]), the “Hair Mass (mg) ± SEM, Treated” value was determined as 1.09 ± 0.07 mg and the “% Reduction (of hair growth)” value was determined as 19 ± 7%.

Consider `C[C@H](CCCC(C)(C)O)[C@H]1CC[C@H]2[C@@H]3CC=C4C[C@@H](O)CC[C@]4(C)[C@H]3CC[C@]12C` [25-Hydroxycholesterol, 25-hydroxycholesterol], for which, in experiment [1] (setting [5]), the “Hair Mass (mg) ± SEM, Treated” value is 1.04 ± 0.10 mg and the “% Reduction (of hair growth)” value is 17 ± 9%.

As for `CCC(C)(C)C(=O)O[C@H]1C[C@@H](C)C=C2C=C[C@H](C)[C@H](CC[C@@H]3C[C@@H](O)CC(=O)O3)[C@H]21` (relative stereo) [Simivistatin, 1S-[1α,3α,7β,8β(2S*,4S*),8aβ]]-1,2,3,7,8,8a-hexahydro-3,7-dimethyl-8-[2-tetrahydro-4-hydroxy-6-oxo-2H-pyran-2-yl)ethyl]-1-napthalenyl-2,2-dimethyl-butanoic acid], in experiment [1] (setting [2]), the “Hair Mass (mg) ± SEM, Treated” value is listed as 0.60 ± 0.11 mg and the “% Reduction (of hair growth)” value came out at 61 ± 7%. Also, the “inhibition of HMG CoA reductase activity” value in the experiment with HMG CoA reductase was found to be 100%.
